For nine compounds, IC50 results are on record in patent publication US20240228465A1, “SUBSTITUTED PYRIDINE N-OXIDE DERIVATIVES USEFUL AS A FACTOR XIA INHIBITORS” (Janssen Pharmaceutica NV, priority 2021, published 2024).

pIC50: −log10 of the molar value. Read-outs that look alike come from different tables or passages of the source. A value given as a limit tells only on which side of the number the result lay.

Usually pIC50 stands for the negative decadic logarithm of the IC50, by convention in mol/L. As usually defined, the IC50 is the concentration that gives 50% inhibition.

For one experiment, the target named is human plasma kallikrein (Homo sapiens, UniProt P03952). Nature of the experiment: Kallikrein inhibition assay utilizing a quenched AMC peptide substrate (FLINT). Format: biochemical. As to conditions: for pIC50: 30 min preincubation. Here is the method: Biological Example 2: Kallikrein Inhibition Assay Utilizing a Quenched AMC Peptide Substrate
A fluorescence intensity (FLINT) based assay was used to monitor inhibition of human plasma kallikrein. The peptide substrate, Z-Gly-Pro-Arg-AMC (Purchased from Bachem; Catalog #I-1150) was chosen based on its relatively low KM for kallikrein which enables running the assay at lower substrate concentrations to control background fluorescence. The kinetic parameters for this substrate were determined by fitting titration data to the Michaelis-Menten equation yielding a KM=40 μm, kcat=0.76 s^−1, and kcat/KM=18932 M^−1s^−1.
The Kallikrein FLINT assay was used with the following Z-Gly-Pro-Arg-AMC assay buffer: 50 mM Tris, pH 7.5, 100 mM NaCl, 5 mM CaCl2, 0.1 mg/mL BSA, 0.03% CHAPS. Assay buffer was prepared by mixing all ingredients fresh. 2× Z-Gly-Pro-Arg-AMC peptide substrate was prepared by diluting 10 mM stock into 1× assay buffer for a 100 μM working concentration (50 μM final concentration). The 2× kallikrein stock solution was prepared by diluting 14.76 μM stock in 1× assay buffer for a 4 nM working stock solution (2 nM final concentration).
Test compound(s) were run in an 11-point, 3-fold serial dilution with a final top compound concentration of 1 μM. Final DMSO in assay was 2%. Plasma kallikrein was pre-incubated for 30-minute with compound and then 50 μM substrate was added to initiate the reaction. The assay was run with either end point (EP) reads at 30 min or kinetic (KIN) reads at 5 min intervals over 30 minutes. The time course was linear using 2 nM kallikrein greater than 30 minutes. More specifically, the assay was run as follows: • 100 nL of 0.1 mM test compound was dispensed into black 384-well non-binding Greiner BioOne 784900 plate for 1 μM final concentration; • 5 μL of 1× assay buffer was dispensed to columns 24 (low control) and 5 μL 2× human kallikrein enzyme solution was dispensed to columns 1-23 (column 23 high control); • the plate was centrifuged with a “cover” plate at 500 rpm for 1 min • the plate was pre-incubated for 30 minutes at room temperature with plate covered; • 5 μL of 2× Z-Gly-Pro-Arg-AMC peptide substrate was dispensed into the entire plate, columns 1-24; • the plate was centrifuged with a “cover” plate at 500 rpm for 1 min; • the plate was read monitoring fluorescence intensity on the BMG PHERAStar at room temperature, using fluorescence module 340 nm/440 nm.
(§1) Percent inhibition (IC50) curves were generated per compound tested, and data was analyzed using a 4-parameter logistic fit using GeneData Screener. The relative fluorescence unit (RFU) values were normalized to percent inhibition using the following equation:
% inhibition=((HC−LC)−(compound−LC)/(HC−LC))*100 • where LC—low control=mean signal of human kallikrein enzyme or 100% inhibition of human kallikrein enzyme; HC—high control=mean signal of Factor XIa+Z-Gly-Pro-Arg-AMC peptide substrate with DMSO only.
(§2) An 11-point dose response curve for the test compound(s) was generated using GENDATA to determine IC50 value based on the following equation:
Y=Bottom+(Top−Bottom)/(1+10^((log IC50−X)*HillSlope)) • where Y is the % inhibition in the presence of X inhibitor concentration, Top=high control=mean signal of human kallikrein enzyme+Z-Gly-Pro-Arg-AMC peptide substrate with DMSO only; Bottom=low control—mean signal of no human kallikrein enzyme or 100% inhibition of human kallikrein enzyme; HillSlope—Hill coefficient; and IC50=concentration of compound with 50% inhibition in relation to top/high control.
Representative compounds of formula (I) of the present invention were tested according to the procedure described in Biological Example 1 and Biological Example 2 above, with results as listed in Table 3, below. Results listed in the (ER) column were measured using endpoint reads where a single fluorescence reading was measured for each well at a 30 min timepoint. […]

In a further experiment the target is Factor XIa (Homo sapiens, UniProt P03951). Nature of the experiment: Factor XIa inhibition assay utilizing a fluorophore-quencher pair peptide substrate (FLINT). Format: biochemical. As to conditions: 30 min preincubation.
From the text: Biological Example 1: Factor XIa Inhibition Assay Utilizing a Fluorophore-Quencher Pair Peptide Substrate
A fluorescence intensity (FLINT) based assay was used to monitor inhibition of Factor XIa. The peptide substrate, 5Fam-KLTRAETV-K5Tamra (purchased from New England Peptide) was chosen based on the […]. Conversion of zymogen […]. The custom peptide used in this assay was based on the Arg146 cleavage site of FXI. The peptide substrate was designed with a fluorophore-quencher pair, where the fluorescence is quenched until FXIa cleaves the 8-mer peptide after the Arg residue. The substrate KM was fit to a substrate inhibition model whereby kcat=0.86 s^−1, KM=12.4 μM, Ki=61.6 μM with an enzymatic efficiency, and kcat/KM=69523 M^−1s^−1.
The Factor XIa FLINT assay was used with the following 5Fam-KLTRAETV-K5Tamra assay buffer: 50 mM Tris, pH 7.5, 100 mM NaCl, 5 mM CaCl2, 0.1 mg/mL BSA, 0.03% CHAPS. Assay buffer was prepared by mixing all ingredients fresh. 5Fam-KLTRAETV-K5Tamra peptide substrate was first prepared at 10 mM in 100% DMSO, then diluted to 3 mM in 100% DMSO. Assay buffer was then added directly to the 3 mM stock of substrate to prepare the 30 μM 2× working concentration (15 μM final concentration). The 2× Factor XIa stock solution was prepared by diluting 6.562 μM stock in 1× assay buffer for a […].
Test compound(s) were run in an 11-point, 3-fold serial dilution with a final top compound concentration of 100 nM. Final DMSO in assay was 2%. FXIa was preincubated with compound for 30-minutes and then substrate was added to initiate the reaction. The assay was run with either end point (EP) reads at 30 min or kinetic (KIN) reads at 5 min intervals over 30 minutes. The time course was linear using 100 μM FXIa greater than 30 minutes. More specifically, the assay was run as follows: • 100 nL of 0.01 mM test compound was dispensed into black 384-well non-binding Greiner BioOne 784900 plate for 0.1 μM final concentration; • 5 μL of 1× assay buffer was dispensed to column 24 (low control) and 5 μL 2× Factor XIa solution was dispensed to columns 1-23 (column 23 high control); • the plate was centrifuged with a “cover” plate at 500 rpm for 1 min • the plate was pre-incubated for 30 minutes at room temperature with plate covered; • 5 μL of 2× 5Fam-KLTRAETV-K5Tamra peptide substrate was dispensed into the entire plate, columns 1-24; • the plate was centrifuged with a “cover” plate at 500 rpm for 1 min; • the plate was read monitoring fluorescence intensity on the BMG PHERAStar at room temperature, using fluorescence module 485 nm/520 nm.
as §1
[formula] • where LC—low control=mean signal of no Factor XIa or 100% inhibition of Factor XIa; HC—high control=mean signal of Factor XIa+5Fam-KLTRAETV-K5Tamra peptide substrate with DMSO only.
as §2
[formula] • where Y is the % inhibition in the presence of X inhibitor concentration, Top=high control=mean signal of Factor XIa+5Fam-KLTRAETV-K5Tamra peptide substrate with DMSO only; Bottom=low control—mean signal of no Factor XIa or 100% inhibition of Factor XIa; HillSlope—Hill coefficient; and IC50=concentration of compound with 50% inhibition in relation to top/high control.
Representative compounds of formula (I) of the present invention were tested according to the procedure described in Biological Example 1 and Biological Example 2 above, with results as listed in Table 3, below. […]

Setting [1] is: end point read at 30 min, read-out: Kallikrein (EP) IC50.
[2] abbreviates: end point read at 30 min, read-out: FXIa (EP) IC50.
[3] abbreviates: kinetic reads at 5 min intervals over 30 min, read-out: Kallikrein (KIN) IC50.
[4] abbreviates: kinetic reads at 5 min intervals over 30 min, read-out: FXIa (KIN) IC50.

human plasma kallikrein, sequence (P03952 391-638 limits assumed): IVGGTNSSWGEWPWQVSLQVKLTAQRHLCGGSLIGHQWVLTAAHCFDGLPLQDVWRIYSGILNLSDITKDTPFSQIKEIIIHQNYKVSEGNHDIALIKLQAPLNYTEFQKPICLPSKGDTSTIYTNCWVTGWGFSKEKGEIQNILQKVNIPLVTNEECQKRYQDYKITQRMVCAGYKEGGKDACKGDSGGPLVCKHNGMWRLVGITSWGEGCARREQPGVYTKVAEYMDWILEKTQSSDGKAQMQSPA
human plasma kallikrein, sequence (P03952 20-390 partner limits assumed): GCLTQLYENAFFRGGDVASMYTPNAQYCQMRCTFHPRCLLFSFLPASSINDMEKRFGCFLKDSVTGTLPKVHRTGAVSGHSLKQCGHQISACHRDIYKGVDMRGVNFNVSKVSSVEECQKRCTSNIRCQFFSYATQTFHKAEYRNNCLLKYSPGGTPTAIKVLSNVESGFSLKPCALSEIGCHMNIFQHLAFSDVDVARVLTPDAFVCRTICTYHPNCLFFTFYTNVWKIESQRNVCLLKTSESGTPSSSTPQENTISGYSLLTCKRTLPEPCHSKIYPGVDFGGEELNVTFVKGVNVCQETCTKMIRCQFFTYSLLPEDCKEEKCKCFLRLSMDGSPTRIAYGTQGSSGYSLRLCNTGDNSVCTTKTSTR
Factor XIa, sequence (P03951 388-625 limits assumed): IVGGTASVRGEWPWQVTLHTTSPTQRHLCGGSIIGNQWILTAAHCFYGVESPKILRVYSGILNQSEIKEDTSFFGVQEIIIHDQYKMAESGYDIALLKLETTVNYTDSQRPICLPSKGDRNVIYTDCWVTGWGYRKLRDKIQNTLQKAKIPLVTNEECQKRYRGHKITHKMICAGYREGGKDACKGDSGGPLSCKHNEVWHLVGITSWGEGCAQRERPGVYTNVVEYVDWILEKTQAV
Factor XIa, sequence (P03951 19-387 partner limits assumed): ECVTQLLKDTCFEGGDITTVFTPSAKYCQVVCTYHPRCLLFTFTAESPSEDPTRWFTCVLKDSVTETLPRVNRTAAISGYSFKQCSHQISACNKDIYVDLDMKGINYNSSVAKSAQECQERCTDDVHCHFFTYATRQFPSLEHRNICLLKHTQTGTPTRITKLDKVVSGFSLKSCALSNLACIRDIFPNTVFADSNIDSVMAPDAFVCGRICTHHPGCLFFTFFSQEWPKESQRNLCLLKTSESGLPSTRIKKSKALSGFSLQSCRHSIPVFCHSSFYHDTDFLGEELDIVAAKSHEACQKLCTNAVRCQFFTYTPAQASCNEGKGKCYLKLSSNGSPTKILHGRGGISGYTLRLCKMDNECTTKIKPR

In the case of `O=C(N[C@H]1C[C@H](O)C1)c1ccc(-c2cn(C(CC3CC3)c3ccc(-c4cc(Cl)ccc4-n4cnnn4)c[n+]3[O-])cn2)cc1` (mixture of isomers) [M2, 5-(5-Chloro-2-(1H-tetrazol-1-yl)phenyl)-2-(2-cyclopropyl-1-(4-(4-(((1R,3R)-3-hydroxycyclobutyl)carbamoyl)phenyl)-1H-imidazol-1-yl)ethyl)pyridine 1-oxide], the negative logarithm of the IC50 (pIC50) at human plasma kallikrein (setting [1]) is 5.87; on Factor XIa (setting [2]) it was 7.00.
Take `CCC(c1ccc(-c2c(-n3cnnn3)ccc(Cl)c2F)c[n+]1[O-])n1cnc(-c2ccc(NC(=O)OC)cc2)c1` (racemic) [M4, 5-(3-Chloro-2-fluoro-6-(1H-tetrazol-1-yl)phenyl)-2-(1-(4-(4-((methoxycarbonyl)amino)phenyl)-1H-imidazol-1-yl)propyl)pyridine 1-oxide]: the pIC50 on human plasma kallikrein (setting [3]) is 6.69; at Factor XIa (setting [4]), 7.92.
Consider `[2H]C([2H])([2H])n1nccc1-c1cn(C(CCOC(F)F)c2ccc(-c3c(-n4cc(C(F)(F)F)nn4)ccc(Cl)c3F)c[n+]2[O-])cn1` (single isomer, unassigned) [M15, (R*)-5-(3-Chloro-2-fluoro-6-(4-(trifluoromethyl)-1H-1,2,3-triazol-1-yl)phenyl)-2-(3-(difluoromethoxy)-1-(4-(1-(methyl-d3)-1H-pyrazol-5-yl)-1H-imidazol-1-yl)propyl)pyridine 1-oxide], for which, on human plasma kallikrein (kinetic reads, unit μM, read-out: Kallikrein (KIN) IC50), the IC50 is more than 1 µM. The pIC50 on Factor XIa (setting [4]) was less than 7.00.
`[2H]C([2H])([2H])n1nccc1-c1cn(C(CCOC(F)F)c2ccc(-c3c(-n4cc(C(F)(F)F)nn4)ccc(Cl)c3F)c[n+]2[O-])cn1` (single isomer, unassigned) [M16, (S*)-5-(3-Chloro-2-fluoro-6-(4-(trifluoromethyl)-1H-1,2,3-triazol-1-yl)phenyl)-2-(3-(difluoromethoxy)-1-(4-(1-(methyl-d3)-1H-pyrazol-5-yl)-1H-imidazol-1-yl)propyl)pyridine 1-oxide]: the figures for the pIC50 on human plasma kallikrein (setting [3]) and on Factor XIa (setting [4]) were 7.50 and 9.30, respectively.
For `COC(=O)Nc1ccc(-c2cn(C(CC3CC3)c3ccc(-c4c(-n5cnnn5)ccc(Cl)c4F)c[n+]3[O-])nn2)cc1` (single isomer, unassigned) [T3, (R*)-5-(3-Chloro-2-fluoro-6-(1H-tetrazol-1-yl)phenyl)-2-(2-cyclopropyl-1-(4-(4-((methoxycarbonyl)amino)phenyl)-1H-1,2,3-triazol-1-yl)ethyl)pyridine 1-oxide] the same measures were 6.57 and 7.50.
For `COC(=O)Nc1ccc(-c2cn(C(CC3CC3)c3ccc(-c4c(-n5cnnn5)ccc(Cl)c4F)c[n+]3[O-])nn2)cc1` (single isomer, unassigned) [T4, (S*)-5-(3-Chloro-2-fluoro-6-(1H-tetrazol-1-yl)phenyl)-2-(2-cyclopropyl-1-(4-(4-((methoxycarbonyl)amino)phenyl)-1H-1,2,3-triazol-1-yl)ethyl)pyridine 1-oxide] the same measures were 7.83 and 9.00.
As to `O=C(O)c1ccc(-c2cn(C(CC3CC3)c3ccc(-c4cc(Cl)ccc4-n4cnnn4)c[n+]3[O-])cn2)cc1` (stereo not drawn) [M1, 2-(1-(4-(4-Carboxyphenyl)-1H-imidazol-1-yl)-2-cyclopropylethyl)-5-(5-chloro-2-(1H-tetrazol-1-yl)phenyl)pyridine 1-oxide], the pIC50 on human plasma kallikrein (setting [1]) was 6.51; on Factor XIa (setting [2]), 8.15.
As to `COC(=O)Nc1ccc(-c2cn(C(CC3CC3)c3ccc(-c4c(-n5cnnn5)ccc(Cl)c4F)c[n+]3[O-])cn2)cc1` (stereo not drawn) [M3, 5-(3-Chloro-2-fluoro-6-(1H-tetrazol-1-yl)phenyl)-2-(2-cyclopropyl-1-(4-(4-((methoxycarbonyl)amino)phenyl)-1H-imidazol-1-yl)ethyl)pyridine 1-oxide], the negative logarithm of the IC50 (pIC50) at human plasma kallikrein (setting [3]) was 6.77; at Factor XIa (setting [4]), 8.07.
Regarding `[O-][n+]1cc(-c2c(-n3cnnn3)ccc(Cl)c2F)ccc1C(Cc1ccc(F)cc1)n1cnc(-c2ccncc2)c1` (stereo not drawn) [M5, 5-(3-Chloro-2-fluoro-6-(1H-tetrazol-1-yl)phenyl)-2-(2-(4-fluorophenyl)-1-(4-(pyridin-4-yl)-1H-imidazol-1-yl)ethyl)pyridine 1-oxide], the negative logarithm of the IC50 (pIC50) at human plasma kallikrein (setting [3]) is 8.77; at Factor XIa (setting [4]) it was 9.15.
